Measurements taken from patent publication US20040063745A1, “2-amino-4-(pyridin-2-yl)-thiazole derivatives as transforming growth factor beta (tgf-beta) inhibitors” (priority 2001, published 2004).
pIC50: −log10 of the molar value.

System: TAG-β signalling (PAI-1 promoter, HepG2 cells)
Assay: Assay 1: PAI-1 promoter luciferase reporter assay in HepG2 cells exposed to TAG-β
Type: cell-based
Conditions: for pIC50: Homo sapiens, HepG2
Experimental: The assay was performed in HepG2 cells stably transfected with the PAI-1 promoter (known to be a strong TAG-β responsive promoter) linked to a luciferase (firefly) reporter gene. The compounds were selected on their ability to inhibit luciferase activity in cells exposed to TAG-β. In addition cells were transfected with a second luciferase (Renilla) gene which was not driven by a TAG-β responsive promoter and was used as a toxicity control.
(96 well-)microplates are seeded, using a multidrop apparatus, with the stably transfected cell line at a concentration of 35000 cells per well in 200 μl of serum-containing medium. These plates are placed in a cell incubator.
18 to 24 hours later (Day 2), cell-incubation procedure is launched. Cells are incubated with TAG-β and a candidate compound (TAG-β inhibitor) at concentrations in the range 50 nM to 10 μM (final concentration of DMSO 1%). The final concentration of TAG-β(rhTGFβ-1) used in the test is 1 ng/mL. Cells are incubated with a candidate compound 15-30 mins prior to the addition of TAGβ. The final volume of the test reaction is 150 μl. Each well contains only one candidate compound and its effect on the PAI-1 promoter is monitored.
Columns 11 and 12 are employed as controls. Column 11 contains 8 wells in which the cells are incubated in the presence of TAGβ, without a candidate compound. Column 11 is used to determine the ‘reference TAG-β induced firefly luciferase value’ against which values measured in the test wells (to quantify inhibitory activity) may be compared. In wells A12 to D12, cells are grown in medium without TAG-β. The firefly luciferase values obtained from these positions are representive of the ‘basal firefly luciferase activity’. In wells E12 to H12, cells are incubated in the presence of TAG-β and 500 μM CPO (Cyclopentenone, Sigma), a cell toxic compound.
12 to 18 hours later (day 3), the luciferase quantification procedure is launched. The following reactions are performed using reagents obtained from a Dual Luciferase Assay Kit (Promega). Cells are washed and lysed with the addition of 10 μl of passive lysis buffer (Promega). Following agitation (15 to 30 mins), luciferase activities of the plates are read in a dual-injector luminometer (BMG lumistar). For this purpose, 50 μl of luciferase assay reagent and 50 μl of ‘Stop & Glo’ buffer are injected sequentially to quantify the activities of both luciferases. The mean Luciferase activity value obtained in wells A11 to H11 (Column 11, TAG-β only) is considered to represent 100% and values obtained in wells A12 to D12 (cells in medium alone) gives a basal level (0%). For each of the compounds tested, a concentration response curve is constructed from which an IC50 value can be determined graphically.

pIC50	Compound	firefly and renilla luciferase activities relative to column 11 (TAG-β only) (500 μM CPO with TAG-β, toxicity control wells E12 to H12)
	O=C1C=CCC1 [CPO, Cyclopentenone, reference compound]	around 50%
≥ 5.30	Cc1cccc(-c2nc(N)sc2-c2ccc3ncccc3n2)n1 [Example 3, 4-(6-Methyl-pyridin-2-yl)-5-([1,5]naphthyridin-2-yl)-1,3-thiazol-2-amine]	
≥ 5.30	Nc1nc(-c2ccccn2)c(-c2ccc3ncccc3n2)s1 [Example 2, 5-([1,5]Naphthyridin-2-yl)4-pyridin-2-yl-1,3-thiazol-2-amine]	

Compound	pIC50	firefly and renilla luciferase activities relative to column 11 (TAG-β only) (500 μM CPO with TAG-β, toxicity control wells E12 to H12)
Nc1nc(-c2ccccn2)c(-c2ccnc3ccccc23)s1 [Example 1, 4-(Pyridin-2-yl)-5-quinolin-4-yl-1,3-thiazol-2-amine]	≥ 5.30	
